Values of other authors as cited in US20110111002A1, “TRANSPORT AND DELIVERY OF GLUTATHIONE INTO HUMAN CELLS USING GOLD NANOPARTICLES” (priority 2009, published 2011).

Legend:
[1] = test system: intracellular glutathione concentration; settings: versus the three component amino acids (precursors)
[2] = humans, injectable
[3] = test system: cell type tested; settings: irrespective of the cell type tested

N[C@@H](CCC(=O)N[C@@H](CS)C(=O)NCC(=O)O)C(=O)O [GSH, L-gammaglutamyl-L-cysteinylglycine]
efficiency in raising the intracellular glutathione concentration compared to the precursors [1]: three times more efficient

O=C([O-])CC([S-])C(=O)[O-].[Au+].[Na+].[Na+] (stereo not drawn) [Myochrisine]
tolerance of high concentrations [2]: excellent tolerance

O=C([O-])CC([S-])C(=O)[O-].[Au+].[Na+].[Na+] (stereo not drawn) [Tauredon]
toxicity [3]: comparatively nontoxic
